Results published in patent publication US4714699A, “2-tolylmorpholine derivatives and pharmaceutical compositions” (Societe Anonyme Dite: Laboratoire L. Lafon, priority 1983, dated 1987).
Entries after “also recorded” stand apart in the source; their conditions may differ.

Assays:
[1] = action on the intergroup aggressiveness; assay type: in vivo, male mice; conditions: i.p., mice
Procedure: (§1) In the following tests, CRL 40 875, in solution in distilled water, was administered intraperitoneally in a volume of 20 ml/kg to male mice and 5 ml/kg to male rats.
After they have stayed for 3 weeks in the two halves of a cage divided by an opaque partition, groups of 3 mice receive CRL 40 875. Half an hour later, the two groups from the same cage are brought together by removal of the partition, and the number of fights which occur in 10 minutes is noted.
(§2) In the following tests, CRL 40 897, in solution in distilled water (pH 4), was administered intraperitoneally in a volume of 20 ml/kg to male mice and in a volume of 5 ml/kg to male rats, the procedures being those given above for CRL 40 875.
(§3) In the tests undertaken, CRL 40 912, in solution in distilled water (pH 4.5), was administered intraperitoneally in a volume of 20 ml/kg to male mice and in a volume of 5 ml/kg to male rats, the procedures being those given above for CRL 40 875.

[2] = interaction with apomorphine in mice; assay type: in vivo, male mice
Procedure: as §1
Groups of 6 mice receive CRL 40 875 0.5 hour before the subcutaneous injection of 1 or 16 mg/kg of apomorphine.
as §2, §3

[3] = motility reduced by habituation to the enclosure; assay type: in vivo, male mice; conditions: i.p.
Procedure: as §1
After they have stayed in the actimeters for 18 hours, the mice (6 per dose, 12 control animals) receive CRL 40 875. They are immediately returned to their respective enclosures and, half an hour later, their motility is recorded for 30 minutes.
as §2, §3

α-adrenergic = α-adrenergic stimulation; conditions: in vivo
[4] = clinical trials, treatment of depressions; assay type: in vivo; conditions: man
Description: In clinical trials, good results were obtained on man with CRL 40 875 (Example 1), CRL 40 912 (Example 2) and CRL 40 897 (Example 3) in the treatment of depressions.

[5] = interaction with reserpine; assay type: in vivo, male mice; conditions: i.p.
Procedure: as §1
Four hours after the intraperitoneal injection of 2.5 mg/kg of reserpine, groups of 6 mice receive CRL 40 875. The effects on the temperature and ptosis are observed.
as §2, §3

[6] = neuropsychopharmacological study, overall findings; assay type: in vivo, mice, rats; conditions: for variation of sedative effects with dose: in vivo; for antidepressant effects: strong doses; for sedative effects: weak doses where stated
Procedure: as §1, §2, §3
(§4) The toxicological and neuropsychopharmacological studies undertaken in accordance with the procedures described above for CRL 40 875 enabled the following observations to be made: […]

[7] = interaction with amphetamine; assay type: in vivo, male rats; conditions: i.p.; 2 mg/kg amphetamine; rats
Procedure: as §1, §2, §3

[8] = asphyxiant anoxia (gallamine triiodoethylate); assay type: in vivo, male mice; conditions: i.p., mice
Procedure: as §1
Groups of 20 mice receive CRL 40 875 half an hour before the intraperitoneal administration of 32 mg/kg of gallamine triidoethylate (which is a reference curarizing agent).
as §2, §3

[9] = interaction with oxotremorine; assay type: in vivo, male mice
Procedure: as §1
CRL 40 875 is administered to groups of 6 mice half an hour before the intraperitoneal injection of 0.5 mg/kg of oxotremorine.
as §2, §3

[10] = cardiovascular study in dogs; assay type: in vivo
[11] = cardiovascular study in rats; assay type: in vivo; conditions: wake rats
[12] = motility reduced by hypoxic aggression; assay type: in vivo, male mice; conditions: i.p.
Procedure: as §1
Half an hour after they have received CRL 40 875, the mice (10 per dose, 20 control animals) are subjected to acute hypobaric anoxia [pressure reduction of 600 mm Hg (i.e. about 8×10^4 pascals) in 90 seconds; release of vacuum in 45 seconds] and are then placed in an actimeter, where their motility is recorded for 10 minutes.
as §2

traction test = assay type: in vivo, male mice; conditions: i.p., mice
Procedure: as §1
(§5) The test is performed on groups of 10 mice half an hour after the administration of CRL 40 875.
as §2

electric shock = assay type: in vivo, male mice; conditions: i.p., mice
Procedure: as §1, §5, §2

[13] = interaction with apomorphine in rats; assay type: in vivo, male rats; conditions: i.p., 0.5 mg/kg apomorphine
Procedure: as §1
CRL 40 875 is administered to groups of 6 rats 0.5 hour before the subcutaneous injection of 0.5 mg/kg of apomorphine.
as §2, §3

[14] = overall behavior and reactivities in mice; assay type: in vivo, male mice
Procedure: as §1
Groups of three mice are observed before and then 15 minutes, 30 minutes, 1 hour, 2 hours, 3 hours and 24 hours after the administration of CRL 40 875.
as §2, §4

[15] = action on the spontaneous motility; assay type: in vivo, male mice; conditions: mice
Procedure: as §1
Half an hour after they have received CRL 40 875, the mice (6 per dose, 12 control animals) are placed in an actimeter, where their motility is recorded for 30 minutes.
as §2

[16] = pretoxicity (LD-O, maximum non-lethal dose); assay type: in vivo, male mice
Procedure: as §1, §2, §3, §4

four plate test = assay type: in vivo, male mice; conditions: i.p., mice
Procedure: as §1, §5, §2

[17] = high dose (64 mg/kg) i.p., mice
[18] = anesthetized dogs, intraduodenal (CRL 40 903: then intravenous)
[19] = intraduodenal, anesthetized dogs

With `Cc1cccc(C2CN(C)CCO2)c1.Cl` (stereo not drawn) [CRL 40 912, 2-m-tolyl-4-methylmorpholine hydrochloride] the “effect on aggressiveness / number of fights” value [1] was “reduction of aggressiveness”, the “effect on the hypothermic effects of apomorphine” value ([2]; strong dose, i.p.) was “opposes the hypothermic effects of apomorphine” and the “resumption in the activity of mice accustomed to their enclosure” value [3] was “does not cause a resumption in the motor activity of mice accustomed to their enclosure”. For the same compound, the α-adrenergic stimulant effect (α-adrenergic; hydrochloride) was “effect of the α-stimulant type; also recorded: very distinct peripheral α-adrenergic stimulant action (piloerection, exophthalmos, significant antagonism of the ptosis induced by reserpine); also recorded: stimulant effects, especially of the α-adrenergic type”, the “results in the treatment of depressions” value [4] was “good results” and the “effect on the ptosis induced by reserpine” value ([5]; mice) was “significant antagonism of the ptosis induced by reserpine”. The “effect on the hypothermic effects of reserpine” value ([5]; weaker dose) was “opposes those of reserpine”, the “variation of sedative effects with dose” value [6] was “increase continuously with the dose administered, up to a maximum value, and then decrease continuously and progressively as the dose increases” and the antidepressant effects ([6]; hydrochloride) was “antidepressant at a strong dose; also recorded: antidepressants at strong doses”. The sedative effects ([6]; hydrochloride) was “sedative effects (hypomotility, hypothermia) comparable to those of α-adrenergic blocking substances or to clonidine; also recorded: acts as a sedative at a weak dose; also recorded: sedative effects (hypomotility, hypothermia, reduction of intergroup aggressiveness”, the “effect on stereotypies induced by amphetamine” value [7] was “does not reduce the intensity of the stereotypies induced by amphetamine” and the “time taken for convulsions and death to occur following asphyxiant anoxia” value [8] was “delay in the time taken for convulsions and death to occur”. The “effect on the temperature drop caused by oxotremorine” value ([9]; strong dose, i.p.) was “opposes the hypothermic effects of apomorphine and oxotremorine”, the “effect on blood pressure” value ([10]; 1 mg/kg i.p., anesthetized dogs) was “hypertensive agent” and the “effect on hypertensive action” value ([10]; 5 mg/kg i.p., anesthetized dogs) was “this effect decreases”. The “dose as from which bradycardia is caused” value ([10]; i.p., anesthetized dogs) was at least 5 mg/kg, the bradycardia [11] was “bradycardia is of short duration” and the mean blood pressure [11] was “no action on the mean blood pressure”.

In the case of `Cc1ccc(C2CN(C)CCO2)cc1.Cl` (stereo not drawn) [CRL 40 897, 2-p-tolyl-4-methylmorpholine hydrochloride], the “effect on aggressiveness / number of fights” value [1] is reported as “does not cause a distinct reduction in the number of fights”, the minimal effective dose ([2]; Mus musculus, ip, mice, read-out: dose as from which hypothermic effect is present) is reported as at least 4 mg/kg and the “effect on the temperature drop induced by apomorphine” value [2, 17] is reported as “partially counteracts the temperature drop induced by apomorphine”. The “effect on righting behavior and stereotypies” value ([2]; i.p., apomorphine, mice) was “without modifying the righting behavior and the stereotypies”, the “motor recovery in mice after reduced-pressure enclosure” value [12] was “does not cause any improvement in the motor recovery” and the major motor incapacity (traction test) was “does not cause major motor incapacity”. For the same compound, the “effect on electric shock” value (electric shock) was “does not modify the convulsant and lethal effects of electric shock”, the “resumption in the activity of mice accustomed to their enclosure” value [3] was “does not cause a resumption in the activity of mice accustomed to their enclosure” and the α-adrenergic stimulant effect (α-adrenergic) was “stimulant effects, especially of the α-adrenergic type”. For the same compound, the “results in the treatment of depressions” value [4] was “good results”, the “effect on the hypothermia and ptosis induced by reserpine” value ([5]; mice) was “does not modify the hypothermia and ptosis induced by reserpine” and the “effect on stereotypies induced by apomorphine” value [13] was “does not modify the stereotypies induced by apomorphine”. The “variation of sedative effects with dose” value [6] was “increase continuously with the dose administered, up to a maximum value, and then decrease continuously and progressively as the dose increases”, the antidepressant effects [6] was “antidepressants at strong doses” and the sedative effects [6] was “sedative effects (hypomotility, hypothermia, reduction of intergroup aggressiveness”. The duration of hypothermia ([14]; 4 mg/kg i.p., mice) was 0.5 h, the “hypothermia (temperature change)” value ([14]; 4 mg/kg i.p., mice) was -2.2 °C and the duration of hypothermia ([14]; 16 mg/kg i.p., mice) was 0.5 h. The “hypothermia (temperature change)” value ([14]; 16 mg/kg i.p., mice) was -2.4 °C, the “depressed respiration, animals affected” value ([14]; 64 mg/kg i.p., mice) was 2/3 and the “duration of depressed respiration” value ([14]; 64 mg/kg i.p., mice) was 3 h. For the same compound, the duration of sedation ([14]; 64 mg/kg i.p., mice) was 3 h, the “duration of significant salivation” value ([14]; 64 mg/kg i.p., mice) was 1 h and the “hypothermia (temperature change)” value ([14]; 64 mg/kg i.p., mice) was -2.2 °C. The “sedation, animals affected” value ([14]; 64 mg/kg i.p., mice) was 3 out of 3, the “significant salivation, animals affected” value ([14]; 64 mg/kg i.p., mice) was 3/3 and the “effect on stereotypies induced by amphetamine” value [7] was “The increase observed in the other groups merely reflect this anomaly”. The “time taken for convulsions and death to occur following asphyxiant anoxia” value [8] was “delays the time taken for convulsions and death to occur”, the minimal effective dose ([15]; Mus musculus, ip, read-out: dose as from which motility is reduced) was at least 4 mg/kg and the “effect on spontaneous motor activity” value ([15]; as from 4 mg/kg i.p.) was “depresses the spontaneous motor activity of mice”. The signs of toxicity ([16]; 64 mg/kg i.p., mice) was “dyspnea, sedation”, the “trembling, animals affected” value ([16]; 64 mg/kg i.p., mice) was 1/3 and the mortality ([16]; 128 mg/kg i.p., groups of three mice) was “no mortality”. For the same compound, the signs of toxicity ([16]; 128 mg/kg i.p., groups of three mice, hydrochloride) was “dyspnea, trembling; also recorded: sedation”, the “convulsions, animals affected” value ([16]; 128 mg/kg i.p., mice) was 2/3 and the “convulsions, animals affected” value ([16]; 256 mg/kg i.p., mice) was 2/3. For the same compound, the “copious salivation, animals affected” value ([16]; 256 mg/kg i.p., mice) was 1 out of 3, the “death, animals affected” value ([16]; 256 mg/kg i.p., mice) was 3/3 and the signs of toxicity ([16]; 256 mg/kg i.p., mice) was “dyspnea”. The time to death ([16]; 256 mg/kg i.p., mice) was 10 min, the “number of punished passes” value (four plate test) was “does not cause an increase in the number of punished passes” and the minimal effective dose ([9]; Mus musculus, ip, mice, read-out: dose as from which hypothermic effect is distinct) was at least 4 mg/kg. The “effect on the temperature drop induced by oxotremorine” value [9, 17] was “partially counteracts the temperature drop induced by oxotremorine”, the “effect on signs of peripheral cholinergic stimulation induced by oxotremorine” value ([9]; i.p., mice) was “leaves unchanged the signs of peripheral cholinergic stimulation induced by oxotremorine” and the “effect on the trembling due to oxotremorine” value ([9]; i.p., mice) was “not influenced”.

In the case of `Cc1ccccc1C1CN(C(C)(C)C)CCO1` (stereo not drawn) [CRL 40 910, 2-o-tolyl-4-tert.-butylmorpholine], the sedative effects [6] is reported as “sedative effects”, the hypothermia ([14]; 64 mg/kg i.p., male mice) is reported as “moderate hypothermia” and the duration of hypothermia ([14]; 64 mg/kg i.p., mice) is reported as 0.5 h. For the same compound, the “LD-O (maximum non-lethal dose)” value ([16]; intraperitoneally, male mice) was “greater than 128 mg/kg”, the “femoral and vertebral flow rates” value ([10]; 0.5 mg/kg intraduodenally, anesthetized dogs) was “significantly increases the femoral and vertebral flow rates” and the “effect of propanolol on the increase in femoral flow rate” value ([10]; anesthetized dogs, intraduodenal) was “not totally inhibited by propanolol”. The “dose as from which tachycardia appears” value [10, 18] was 1 mg/kg, the “effect on the hypertension induced by noradrenaline” value [10, 18] was “reduces the hypertension induced by noradrenaline” and the “effect on the hypotension / effects of isoprenaline” value [10, 18] was “does not modify the effects of isoprenaline”. For the same compound, the vasodilator property ([10]; dog, in vivo) was “particularly interesting as vasodilators”, the effect on respiration [10, 19] was “stimulates respiration in dogs” and the “rectal and skin temperatures” value [10, 19] was “increase progressively”. For the same compound, the “tachycardia, degree” value [10, 19] was “remains weak”, the venous pressure [10, 19] was “increase progressively, as does the venous pressure” and the “effect of propanolol on the effects on heart beat and vertebral flow rate” value ([10]; propanolol 1 mg/kg intravenously, anesthetized dogs) was “antagonized by propanolol”.
